From the NIST ThermoML archive (doi:10.1021/acs.jced.8b00349)

How the values were obtained:
[1] = 101 kPa, Liquid, Falling or rolling sphere viscometry
[2] = mn = molality of the nth substance listed, in mol/kg; conditions: 101 kPa, Liquid; for viscosity: Falling or rolling sphere viscometry; for speed of sound: Frequency=3 MHz, Single path-length method; for mass density: Vibrating tube method

O [water]
[1]
Conditions	viscosity [mPa·s]
293.15 K	1.005
298.15 K	0.894
303.15 K	0.801
308.15 K	0.723
313.15 K	0.656

O [water] + C[n+]1ccn(CCCn2cc[n+](C)c2)c1.[Br-].[Br-]
[2], m2 = 0
Conditions	speed of sound [m/s]	viscosity [mPa·s]
293.15 K	–	1.005
298.15 K	–	0.894
303.15 K	–	0.801
308.15 K	–	0.723
313.15 K	1529.2	0.656

O [water] + C[n+]1ccn(CCCCn2cc[n+](C)c2)c1.[Br-].[Br-]
[2], m2 = 0
Conditions	speed of sound [m/s]	viscosity [mPa·s]
293.15 K	–	1.005
298.15 K	–	0.894
303.15 K	–	0.801
308.15 K	–	0.723
313.15 K	1529.2	0.656

O [water] + C[n+]1ccn(CCCCCn2cc[n+](C)c2)c1.[Br-].[Br-]
[2], m2 = 0
Conditions	speed of sound [m/s]	viscosity [mPa·s]
293.15 K	–	1.005
298.15 K	–	0.894
303.15 K	–	0.801
308.15 K	–	0.723
313.15 K	1529.2	0.656

NCC(=O)O [2-aminoacetic acid] + O
[2], m1 = 0.06
Conditions	mass density [kg/m3]	speed of sound [m/s]	viscosity [mPa·s]
293.15 K	1000.19	1485.8	1.012
298.15 K	999.024	1499.6	0.908
303.15 K	997.613	1511.8	0.811
308.15 K	995.985	1522.4	0.733
313.15 K	994.125	1531.4	0.666
